The text below walks through data of paper PMC3579927, “Identification of a Small Molecule That Selectively Inhibits Mouse PC2 over Mouse PC1/3: A Computational and Experimental Study” (PLoS ONE, 2013).

SMILES strings stand for the structures.

Format in all cases: biochemical
For assay [1], the target named is T1, prohormone convertase 2 (PC2) (Mus musculus, UniProt P21661).
T1 construct: gene Pcsk2; Recombinant PC2
T1 sequence (P21661 109-637): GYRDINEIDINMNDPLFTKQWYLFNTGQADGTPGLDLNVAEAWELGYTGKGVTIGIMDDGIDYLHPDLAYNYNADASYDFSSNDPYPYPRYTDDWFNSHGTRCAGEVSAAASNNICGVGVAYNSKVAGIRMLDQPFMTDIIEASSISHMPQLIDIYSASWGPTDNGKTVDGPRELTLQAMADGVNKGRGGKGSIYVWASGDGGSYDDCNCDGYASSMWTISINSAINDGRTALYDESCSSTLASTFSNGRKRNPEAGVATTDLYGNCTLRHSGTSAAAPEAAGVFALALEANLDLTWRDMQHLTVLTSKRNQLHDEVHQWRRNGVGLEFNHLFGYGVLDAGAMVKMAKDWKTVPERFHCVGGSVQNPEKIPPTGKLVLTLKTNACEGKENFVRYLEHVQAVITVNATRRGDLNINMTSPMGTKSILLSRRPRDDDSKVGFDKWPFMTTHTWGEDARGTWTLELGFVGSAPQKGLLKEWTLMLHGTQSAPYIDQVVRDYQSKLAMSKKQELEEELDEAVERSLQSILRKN
Nature of the assay: fluorogenic enzyme assay, stimulation of activity at […]. Conditions: read-out: % inhibition at 50 μM (negative = stimulation).

The target of assay [2] is T1, prohormone convertase 2 (PC2). Nature of the assay: fluorogenic enzyme assay with pERTKR-amc, IC50 and inhibition kinetics.
For assay [3] the target is unchanged. Nature of the assay: fluorogenic enzyme assay with pERTKR-amc, […] inhibition at […] and […] at […].
Assay [4] has as its target T2, prohormone convertase 1/3 (PC1/3) (Mus musculus, UniProt P63239).
T2 construct: gene Pcsk1
T2 sequence (P63239 111-753): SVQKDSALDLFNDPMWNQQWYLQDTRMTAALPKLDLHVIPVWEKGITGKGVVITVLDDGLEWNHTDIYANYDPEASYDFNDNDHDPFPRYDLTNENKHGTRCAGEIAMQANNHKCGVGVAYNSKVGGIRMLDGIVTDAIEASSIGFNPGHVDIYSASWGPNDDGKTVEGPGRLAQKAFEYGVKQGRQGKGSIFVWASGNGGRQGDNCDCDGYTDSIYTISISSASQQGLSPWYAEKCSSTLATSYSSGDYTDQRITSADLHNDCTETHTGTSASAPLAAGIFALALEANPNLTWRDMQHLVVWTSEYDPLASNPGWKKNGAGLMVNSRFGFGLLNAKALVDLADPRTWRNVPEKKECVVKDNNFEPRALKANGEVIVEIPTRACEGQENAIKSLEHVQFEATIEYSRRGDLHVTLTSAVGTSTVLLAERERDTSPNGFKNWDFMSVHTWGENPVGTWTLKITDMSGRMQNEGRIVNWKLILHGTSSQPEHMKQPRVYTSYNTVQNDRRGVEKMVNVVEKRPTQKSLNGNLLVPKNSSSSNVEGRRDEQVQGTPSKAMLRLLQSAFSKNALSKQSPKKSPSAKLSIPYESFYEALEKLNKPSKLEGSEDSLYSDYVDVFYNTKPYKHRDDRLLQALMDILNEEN
Nature of the assay: enzyme assay, stimulation of activity at […].

In the case of `NCCCN=c1ccc2c3c1c(O)c1c(O)ccc(=O)c1c3[nH]n2CCNCCO` [JFD02062], in assay [1], the inhibition at 50 µM is -60%.

In assay [2], `OC[C@@H](O)[C@H](O)[C@H](O)[C@@H](O)[C@@H]1NCCS1` [RJC00847] yielded a Ki of 690 ± 80 nM.

Take `CCOC(=O)C(=CN/N=c1/cc[nH]c2cc(Cl)ccc12)C(=O)OCC` [BTB03195]: the results for the inhibition at 50 µM in assay [3] and in assay [4] were 71% and -41%, respectively.

As a reminder, the inhibition is the drop in the measured response relative to a control, in per cent. One may read the Ki as the equilibrium dissociation constant of an inhibitor or competing ligand from its target. Lower therefore signals tighter binding.
